Data: PubChem BioAssay (NCI)
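GI50 marks 50% less growth. At the TGI there is no net growth.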

Columns and labels:
Experiment in all cases: DTP human tumour cell line panel, 384-well format; in the data active = GI50 below about 0.43 µM; inactive = the rest
OVCAR-8 ovarian = tested on: OVCAR-8 ovarian
A498 renal = tested on: A498 renal
SF-539 CNS = tested on: SF-539 CNS
NCI-H522 lung = tested on: NCI-H522 lung
RPMI-8226 leukemia = tested on: RPMI-8226 leukemia
SF-268 CNS = tested on: SF-268 CNS
NCI-H226 lung = tested on: NCI-H226 lung
MCF7 breast = tested on: MCF7 breast
CAKI-1 renal = tested on: CAKI-1 renal
HS 578T breast = tested on: HS 578T breast
MDA-MB-435 melanoma = tested on: MDA-MB-435 melanoma
COLO 205 colon = tested on: COLO 205 colon
TK-10 renal = tested on: TK-10 renal

C[C@H](N)C(=O)N1C[C@H](CCCB(O)O)[C@](N)(C(=O)O)C1
inactive: GI50 (OVCAR-8 ovarian) > 100 µM | GI50 (A498 renal) > 100 µM | GI50 (SF-539 CNS) > 100 µM | GI50 (NCI-H522 lung) > 100 µM | GI50 (RPMI-8226 leukemia) > 100 µM | GI50 (SF-268 CNS) > 100 µM | GI50 (NCI-H226 lung) > 100 µM | GI50 (MCF7 breast) > 100 µM | GI50 (CAKI-1 renal) > 100 µM | GI50 (HS 578T breast) > 100 µM | GI50 (MDA-MB-435 melanoma) > 100 µM | GI50 (COLO 205 colon) > 92 µM | GI50 (TK-10 renal) > 100 µM
> 100 µM: TGI (OVCAR-8 ovarian) | TGI (A498 renal) | TGI (SF-539 CNS) | TGI (NCI-H522 lung) | TGI (RPMI-8226 leukemia) | TGI (SF-268 CNS) | TGI (NCI-H226 lung) | TGI (MCF7 breast) | TGI (CAKI-1 renal) | TGI (HS 578T breast) | TGI (MDA-MB-435 melanoma) | TGI (COLO 205 colon) | TGI (TK-10 renal)
